Our source for the MEC values is patent US9624214B2, “Amino-substituted imidazo[1,2-a]pyridinecarboxamides and their use” (BAYER PHARMA AKTIENGESELLSCHAFT, priority 2012, dated 2017).

Where a name gives a salt, the structure may show the parent alone.

The target in the test is T1, recombinant guanylate cyclase reporter cell line (Rattus norvegicus, UniProt P19686+P20595).
T1 construct: expressed in transfected cells
T1 sequence (P20595 1-619): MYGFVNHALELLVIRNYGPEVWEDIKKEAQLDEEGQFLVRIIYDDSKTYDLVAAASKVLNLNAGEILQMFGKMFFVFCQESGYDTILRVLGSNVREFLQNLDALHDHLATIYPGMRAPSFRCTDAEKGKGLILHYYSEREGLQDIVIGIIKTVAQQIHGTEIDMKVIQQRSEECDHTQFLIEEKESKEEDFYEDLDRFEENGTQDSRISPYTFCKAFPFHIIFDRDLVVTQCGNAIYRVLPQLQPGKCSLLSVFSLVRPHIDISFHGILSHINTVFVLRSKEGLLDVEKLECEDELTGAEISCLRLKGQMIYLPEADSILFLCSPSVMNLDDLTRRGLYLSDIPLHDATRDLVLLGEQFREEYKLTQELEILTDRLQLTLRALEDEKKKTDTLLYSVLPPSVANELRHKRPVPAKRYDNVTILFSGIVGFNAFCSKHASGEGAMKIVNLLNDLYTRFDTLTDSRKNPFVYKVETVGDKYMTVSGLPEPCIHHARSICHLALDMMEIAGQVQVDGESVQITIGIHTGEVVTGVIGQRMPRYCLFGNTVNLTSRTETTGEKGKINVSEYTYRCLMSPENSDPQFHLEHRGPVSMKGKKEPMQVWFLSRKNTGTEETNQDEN
T1 sequence (P19686 1-690): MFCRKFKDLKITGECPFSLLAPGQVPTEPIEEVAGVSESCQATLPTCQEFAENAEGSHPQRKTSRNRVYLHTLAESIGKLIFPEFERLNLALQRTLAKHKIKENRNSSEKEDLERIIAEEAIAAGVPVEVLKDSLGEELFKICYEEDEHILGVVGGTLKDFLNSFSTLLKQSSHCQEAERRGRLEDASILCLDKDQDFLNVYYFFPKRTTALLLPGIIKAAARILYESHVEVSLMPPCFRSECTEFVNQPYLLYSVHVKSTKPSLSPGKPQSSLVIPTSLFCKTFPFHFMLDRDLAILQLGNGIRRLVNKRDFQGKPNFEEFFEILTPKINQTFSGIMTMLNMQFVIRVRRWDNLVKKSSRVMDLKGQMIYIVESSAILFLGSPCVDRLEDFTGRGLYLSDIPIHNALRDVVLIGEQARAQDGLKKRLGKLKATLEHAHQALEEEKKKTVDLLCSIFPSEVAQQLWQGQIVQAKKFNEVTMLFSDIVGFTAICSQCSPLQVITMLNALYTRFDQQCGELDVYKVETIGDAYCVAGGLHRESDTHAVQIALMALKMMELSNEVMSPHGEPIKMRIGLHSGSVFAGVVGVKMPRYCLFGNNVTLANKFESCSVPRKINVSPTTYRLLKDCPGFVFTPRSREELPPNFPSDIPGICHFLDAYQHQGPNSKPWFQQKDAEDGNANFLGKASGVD
Put plainly: B-2. Action on recombinant guanylate cyclase reporter cell line. Type of test: cell-based. The following applies: MEC = minimal effective concentration; in some cases mean values from individual determinations. The gist of the method:
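Rat recombinant guanylate cyclase reporter cell line measures cellular activity. Value reported as MEC (minimal effective concentration), sometimes averaged over individual determinations.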
Regarding `Cc1nc2c(OCc3c(F)cccc3F)cc(Cl)cn2c1C(=O)NCCN1CCN(C)CC1` [Example 154, 6-chloro-8-[(2,6-difluorobenzyl)oxy]-2-methyl-N-[2-(4-methylpiperazin-1-yl)ethyl]imidazo[1,2-a]pyridine-3-carboxamide], the MEC is 1.00 µM. For `Cc1nc2c(OCc3c(F)cccc3F)cccn2c1C(=O)NCC(C)N` (racemic) [Example 34, rac-N-(2-aminopropyl)-8-[(2,6-difluorobenzyl)-oxy]-2-methylimidazo[1,2-a]pyridine-3-carboxamide dihydrochloride], the MEC stood at 1.00 µM. As for `Cc1nc2c(OCc3c(F)cccc3F)cc(Cl)cn2c1C(=O)NC1CNCc2ccccc21` (single isomer, unassigned; ent-6) [Example 108, ent-6-chloro-8-[(2,6-difluorobenzyl)oxy]-2-methyl-N-(1,2,3,4-tetrahydroisoquinolin-4-yl)imidazo[1,2-a]pyridine-3-carboxamide], the MEC came out at 1.00 µM. For `Cc1cc(OCc2c(F)cccc2F)c2nc(C)c(C(=O)NC3CCCCNC3)n2c1` (racemic) [Example 316, rac-N-(azepan-3-yl)-8-[(2,6-difluorobenzyl)oxy]-2,6-dimethylimidazo[1,2-a]pyridine-3-carboxamide], the MEC came to 0.30 µM.

`Cc1cc(OCc2c(F)cccc2F)c2nc(C)c(C(=O)NCC(C)(N)C(F)(F)F)n2c1` (single isomer, unassigned) [Example 240, ent-N-(2-Amino-3,3,3-trifluoro-2-methylpropyl)-8-[(2,6-difluorobenzyl)oxy]-2,6-dimethylimidazo-[1,2-a]pyridine-3-carboxamide]: the MEC amounted to 0.30 µM. Take `CCCC(C)(N)CNC(=O)c1c(C)nc2c(OCc3c(F)ccc(C4CC4)c3F)cc(C)cn12` (stereo not drawn) [Example 359, ent-N-(2-amino-2-methylpentyl)-8-[(3-cyclopropyl-2,6-difluorobenzyl)oxy]-2,6-dimethylimidazo[1,2-a]pyridine-3-carboxamide]: the MEC is 3.00 µM. Consider `Cc1cc(OCc2c(F)cccc2F)c2nc(C)c(C(=O)NC3CC(N)C3)n2c1` (mixture of isomers) [Example 334, N-(3-aminocyclobutyl)-8-[(2,6-difluorobenzyl)oxy]-2,6-dimethylimidazo[1,2-a]pyridine-3-carboxamide (cis/trans Mixture)], for which the MEC stood at 1.00 µM. Take `Cc1nc2c(OCc3c(F)cccc3F)cc(Cl)cn2c1C(=O)NCC(C)N` (single isomer, unassigned; enantiomer a) [Example 29, ent-N-(2-Aminopropyl)-6-chloro-8-[(2,6-difluorobenzyl)oxy]-2-methylimidazo[1,2-a]pyridine-3-carboxamide (Enantiomer A)]: the MEC was determined as 0.20 µM. Regarding `COCC(C)(N)CNC(=O)c1c(C)nc2c(OCc3c(F)cccc3F)cc(Cl)cn12` (single isomer, unassigned) [Example 197, ent-N-(2-Amino-3-methoxy-2-methylpropyl)-6-chloro-8-[(2,6-difluorobenzyl)oxy]-2-methylimidazo[1,2-a]pyridine-3-carboxamide], the MEC is 1.00 µM. With `Cc1nc2c(OCc3c(F)cccc3F)cccn2c1C(=O)NC1CC(C)(C)NC(C)(C)C1` [Example 82, 8-[(2,6-Difluorobenzyl)oxy]-2-methyl-N-(2,2,6,6-tetramethylpiperidin-4-yl)imidazo[1,2-a]-pyridine-3-carboxamide], the MEC is 0.20 µM. Turning to `Cc1nc2c(OCc3c(F)cccc3F)cccn2c1C(=O)NCC(C)(C)CN` [Example 103, N-(3-amino-2,2-dimethylpropyl)-8-[(2,6-difluorobenzyl)oxy]-2-methylimidazo[1,2-a]-pyridine-3-carboxamide], the MEC was found to be 3.00 µM.

Regarding `CCC(C)(N)CNC(=O)c1c(C)nc2c(OCc3c(F)cccc3F)cc(OC)cn12` (single isomer, unassigned; enantiomer a) [Example 279, ent-N-(2-amino-2-methylbutyl)-8-[(2,6-difluorobenzyl)oxy]-6-methoxy-2-methylimidazo[1,2-a]pyridine-3-carboxamide (Enantiomer A)], the MEC stood at 0.3 µM. With `Cc1cc(OCc2c(F)cccc2F)c2nc(C)c(C(=O)NCC(N)c3cccc(OC(F)F)c3)n2c1` (racemic) [Example 375, rac-N-{2-amino-2-[3-(difluoromethoxy)phenyl]ethyl}-8-[(2,6-difluorobenzyl)oxy]-2,6-dimethylimidazo[1,2-a]pyridine-3-carboxamide], the MEC was 3.00 µM.

`Cc1cc(OCc2c(F)cccc2F)c2nc(C)c(C(=O)NC3CCC4NCCC43)n2c1` (racemic) [Example 342, rac-8-[(2,6-Difluorobenzyl)oxy]-2,6-dimethyl-N-(octahydrocyclopenta[b]pyrrol-4-yl)imidazo[1,2-a]pyridine-3-carboxamide]: the MEC stood at 1.00 µM. Consider `Cc1nc2c(OCc3c(F)cccc3F)cccn2c1C(=O)NC(CN)CC(F)(F)F` (single isomer, unassigned; enantiomer b) [Example 3, ent-N-(1-Amino-4,4,4-trifluorobutan-2-yl)-8-[(2,6-difluorobenzyl)oxy]-2-methylimidazo[1,2-a]-pyridine-3-carboxamide (Enantiomer B)], for which the MEC amounted to 0.30 µM.

Regarding `Cc1cc(OCc2c(F)cccc2F)c2nc(C)c(C(=O)NC3CCC(N)C3)n2c1` (single isomer, unassigned) [Example 309, ent-N-(3-aminocyclopentyl)-8-[(2,6-difluorobenzyl)oxy]-2,6-dimethylimidazo[1,2-a]pyridine-3-carboxamide], the MEC is 0.30 µM. As for `Cc1nc2c(OCC3CCCCC3)cccn2c1C(=O)NC(CN)c1ccc(F)cc1F` (stereo not drawn) [Example 45, ent-N-[2-Amino-1-(2,4-difluorophenyl)ethyl]-8-(cyclohexylmethoxy)-2-methylimidazo[1,2-a]-pyridine-3-carboxamide], the MEC turned out to be 1.00 µM. For `Cc1nc2c(OCc3c(F)cccc3F)cccn2c1C(=O)NC(C)CN` (racemic) [Example 17, rac-N-(1-aminopropan-2-yl)-8-[(2,6-difluorobenzyl)oxy]-2-methylimidazo[1,2-a]-pyridine-3-carboxamide dihydrochloride] the value was 1.00 µM; for `CCC(C)(N)CNC(=O)c1c(C)nc2c(OCc3c(F)ccc(OC)c3F)cc(C)cn12` (stereo not drawn) [Example 360, ent-N-(2-amino-2-methylbutyl)-8-[(2,6-difluoro-3-methoxybenzyl)oxy]-2,6-dimethylimidazo[1,2-a]pyridine-3-carboxamide], 1.00 µM.

For the compound `Cc1cc(OCc2c(F)cccc2F)c2nc(C)c(C(=O)NCC(N)C#N)n2c1` (single isomer, unassigned; enantiomer a) [Example 401, ent-N-(2-amino-2-cyanoethyl)-8-[(2,6-difluorobenzyl)oxy]-2,6-dimethylimidazo[1,2-a]pyridine-3-carboxamide (Enantiomer A)], the MEC is 1.00 µM.

Turning to `Cc1nc2c(OCc3c(F)cccc3F)cccn2c1C(=O)NC1CNc2ccccc2C1` (single isomer, unassigned; ent-8) [Example 81, ent-8-[(2,6-Difluorobenzyl)oxy]-2-methyl-N-(1,2,3,4-tetrahydroquinolin-3-yl)imidazo[1,2-a]-pyridine-3-carboxamide], the MEC was determined as 1.00 µM. With `CCCC(C)(N)CNC(=O)c1c(C)nc2c(OCc3c(F)cccc3F)cc(Cl)cn12` (single isomer, unassigned) [Example 245, ent-N-(2-Amino-2-methylpentyl)-6-chloro-8-[(2,6-difluorobenzyl)oxy]-2-methylimidazo[1,2-a]-pyridine-3-carboxamide] the figure was 0.10 µM.

For the compound `Cc1cc(OCc2c(F)cccc2F)c2nc(C)c(C(=O)NCC3CCc4ccccc4N3)n2c1` (racemic) [Example 235, rac-8-[(2,6-Difluorobenzyl)oxy]-2,6-dimethyl-N-(1,2,3,4-tetrahydroquinolin-2-ylmethyl)imidazo-[1,2-a]pyridine-3-carboxamide], the MEC came out at 0.30 µM.
